One block for each molecule: values may come before it.
How the values were obtained:
BTK-C [1] = molecular target: T1, BTK-C (Homo sapiens, UniProt Q06187, M35A); experiment: Acyl incorporation assay (click chemistry after Flag immunoprecipitation), BTK-C; format: cell-based; details: HEK293 cells co-expressing zDHHC5, 100 μM analogue for 4 h
T1 construct: cells expressing Flag-tagged, full-length versions of BTK-A and BTK-C; expressed in transfected cells; host or cells: HEK293
Procedure: (§1) FIG. 2A-D presents the BTK-C isoform palmitoylated: FIG. 2A presents a diagram of BTK isoform C-terminal Flag-tagged constructs: FIG. 2B presents an expression of Flag-tagged constructs in MDA-MB-231 cells; FIG. 2C presents detection scheme for acylated BTK isoforms. Cells were incubated with 17-ODYA. Flag immunoprecipitates were reacted with azide-activated biotinylation reagent and detected through reaction with streptavidin-linked horseradish peroxidase; and FIG. 2D presents HEK293 cells were transfected with 1 μg of BTK-A, BTK-C, or BTK-C C13A, C16A and 2 μg of a plasmid expressing zDHHC5. 24 h after transfection cells were incubated for 4 h with 100 μM palmitic acid alkyne (17-ODYA). Cell lysate supernatants were immunoprecipitated with Anti-Flag M2 affinity gel (Sigma) at 4° C. overnight, subjected to click chemistry with 20 μM biotin picolyl azide for 30 m at room temperature before electrophoresis and blotting.
Reporter construction and viral transgenesis: GFP fusion constructs were generated using a BTK pleckstrin homology domain fusion protein vector, PH-Btk-GFP (Addgene Plasmid #51463). BTK constructs (BTK-A R28C; BTK-C; BTK-C R28C; BTK-C C13A, C16A; BTK-C C13A,C16A,R28C) were generated in this plasmid using QuikChange site directed mutagenesis. The exon 1C sequence (FIG. 1B) was subcloned from the original cDNA isolate. To prevent internal translational initiation at the BTK-A ATG, this codon was changed to Ala in all BTK-C constructs. Production of either the 77 kDa BTK-A isoform or the 65 kDa p65BTK was not observed for BTK-C constructs. GFP reporters were subcloned into MARXIVpuro REV plasmid (22). Full-length mutant proteins were produced by subcloning into a BTK gene with a C-terminal Flag tag expressed from a MARXIVpuro REV vector. DNA sequence was confirmed by DNA sequence analysis for all constructs. ϕNX-Ampho cells were transfected with Flag-tagged versions of BTK as described. Empty vector was used as a control. A lentivirus-born shRNA targeting the chromosomal BTK 3′UTR TRCN0000000358 (Sigma-Aldrich, Saint Louis, MO) was used to silence endogenous BTK isoform expression such that each line predominantly expresses the wild-type or mutant version of the intended isoform. BTK acylation: HEK293 cells plated on 6 wells plates were transfected using X-tremeGENE HP transfection reagent (Sigma-Aldrich, Saint Louis, MO) with 1 μg of BTK-C, BTK-A, or BTK-C C13A, C16A with 2 μg of zDHHC5 plasmid. 24 hours after transfection, cells were incubated with 100 μM of palmitic acid alkyne (in DMEM with 1 mg/ml defatted BSA) for 4 h at 37° C. Cells were washed twice in PBS, then lysed on ice in 50 mM Tris HCl, pH 7.4 with 150 mM NaCl, 1 mM EDTA, 1% TRITON X-100 and protein inhibitors. […]

[2] = test system: LNCaP C42b prostate cancer cell line; experiment: Toxicity of PI3K inhibition in LNCaP C42b cells; format: cell-based; details: PTEN- LNCaP C42b prostate cancer cell line, compared with breast cells
breast cells = experiment: Toxicity of PI3K inhibition in breast cells; format: cell-based; details: breast cells (not shown)
Text: Regulation of BTK-C localization and activity by PIP3 levels: Activation of BTK-A in B cells has been extensively studied. Adsorption of BTK-A to the B cell plasma membrane is driven by binding to PIP3 which opens the BTK monomer conformation allowing dimerization, auto-activation (Y223 phosphorylation) and transactivation (Y551 phosphorylation). […] Mutation of the analogous arginine in BTK-C(R62 in BTK-C) causes it to fail to localize to the membrane (FIG. 3S). […] For example, MDA-MB-231 cells which are PTEN^+ display less plasma membrane staining when compared to SUM149 cells which are PTEN. […] This PIP3-dependent activation may occur through BTK-C dimer formation through juxtaposed membrane-bound PH domains as occurs with the BTK-A. Using an assay developed by Chung et al., co-transfecting BTK-C with the BTK-C-GFP construct which contains the PH domain but is missing the kinase domain reduces Y551 phosphorylation compared with vector or BTK-C only (FIG. 4D).

BTK-A and BTK-C = experiment: Activating phosphorylation of BTK isoforms after stimulation with other ligands; format: cell-based, human; details: ligand stimulation (not shown)
BTK-C [3] = experiment: Activating tyrosine phosphorylation of BTK-C after insulin stimulation (immunoblot densitometry); format: cell-based, human; details: transfected HEK293 cells
Procedure: (§2) FIG. 5A-D present activating tyrosine phosphorylation of the BTK isoforms. BTK-A, BTK-C and BTK-C C13, C16 mutant constructs were transfected into HEK293 cell and after 24 hours stimulated with insulin. Values represent fold tyrosine-phosphorylated signal normalized to total BTK-A or BTK-C(anti-Flag) determined by densitometry; FIG. 5B presents phosphorylation of the BTK target tyrosine 759 of PLCγ2 in transfected HEK293 cells; FIG. 5C presents BTK-C expression increases proliferation rate of MDA-MB-231 (PTEN+) but not SUM149 (PTEN−) cells. Cells were seeded in 96 well plates and fixed with 4% formaldehyde and counted at 72 hours. Data were normalized to control and are presented as mean+SD. *p<0.05 using Student's ttest, n=3; and FIG. 5D presents BTK-C increases glucose uptake in MDA-MB-231 (PTEN+) but not SUM149 (PTEN−) cells. Cells were seeded and treated with 100 μM 2-NBDG for 15 min. Fluorescence images were acquired with an InCell 2200 and overall fluorescence intensity quantified. […]
(§3) Embodiment disclosed herein included the following materials and methods: Cell lines MD-AMB-231, BT549, SUM149, SKBr3 and ϕNX-AMPHO were obtained from the American Type Culture Collection (ATCC). […] In growth and uptake experiments, differences between control and treatment conditions were evaluated using Student's t test for pairwise comparisons. […]

BTK-A [4] = experiment: Activating tyrosine phosphorylation of BTK-A after insulin stimulation (immunoblot densitometry); format: cell-based, human; details: transfected HEK293 cells
Procedure: as §2, §3

BTK-A [5] = molecular target: T2, BTK-A (Homo sapiens, UniProt Q06187); experiment: Acyl incorporation assay (click chemistry after Flag immunoprecipitation), BTK-A; format: cell-based; details: HEK293 cells co-expressing zDHHC5, 100 μM analogue for 4 h
T2 construct: cells expressing Flag-tagged, full-length versions of BTK-A and BTK-C; expressed in transfected cells; host or cells: HEK293
Procedure: as §1
Reporter construction and viral transgenesis: GFP fusion constructs were generated using a BTK pleckstrin homology domain fusion protein vector, PH-Btk-GFP (Addgene Plasmid #51463). BTK constructs (BTK-A R28C; BTK-C; BTK-C R28C; BTK-C C13A, C16A; BTK-C C13A,C16A,R28C) were generated in this plasmid using QuikChange site directed mutagenesis. The exon 1C sequence (FIG. 1B) was subcloned from the original cDNA isolate. […]

[6] = insulin stimulation under reduced serum conditions

T1 sequence (Q06187 1-693 isoform Q06187-2 M35A): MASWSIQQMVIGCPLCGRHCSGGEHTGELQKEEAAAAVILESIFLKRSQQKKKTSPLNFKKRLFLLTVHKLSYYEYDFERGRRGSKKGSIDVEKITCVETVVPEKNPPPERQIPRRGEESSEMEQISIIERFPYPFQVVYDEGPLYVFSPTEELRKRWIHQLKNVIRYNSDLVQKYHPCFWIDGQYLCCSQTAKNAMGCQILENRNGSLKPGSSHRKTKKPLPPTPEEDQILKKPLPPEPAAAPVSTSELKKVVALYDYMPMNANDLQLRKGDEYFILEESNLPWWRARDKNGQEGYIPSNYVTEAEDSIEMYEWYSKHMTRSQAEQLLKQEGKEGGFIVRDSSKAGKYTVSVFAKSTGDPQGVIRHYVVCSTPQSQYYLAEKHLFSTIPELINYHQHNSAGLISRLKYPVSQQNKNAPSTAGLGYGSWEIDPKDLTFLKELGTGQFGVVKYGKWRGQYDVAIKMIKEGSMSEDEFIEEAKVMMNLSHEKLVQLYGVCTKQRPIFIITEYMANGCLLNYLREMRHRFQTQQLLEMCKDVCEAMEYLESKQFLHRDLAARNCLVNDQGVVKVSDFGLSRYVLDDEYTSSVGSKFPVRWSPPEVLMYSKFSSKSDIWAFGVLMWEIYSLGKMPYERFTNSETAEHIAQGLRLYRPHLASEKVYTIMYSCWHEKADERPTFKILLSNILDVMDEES
T2 sequence (Q06187 whole entry): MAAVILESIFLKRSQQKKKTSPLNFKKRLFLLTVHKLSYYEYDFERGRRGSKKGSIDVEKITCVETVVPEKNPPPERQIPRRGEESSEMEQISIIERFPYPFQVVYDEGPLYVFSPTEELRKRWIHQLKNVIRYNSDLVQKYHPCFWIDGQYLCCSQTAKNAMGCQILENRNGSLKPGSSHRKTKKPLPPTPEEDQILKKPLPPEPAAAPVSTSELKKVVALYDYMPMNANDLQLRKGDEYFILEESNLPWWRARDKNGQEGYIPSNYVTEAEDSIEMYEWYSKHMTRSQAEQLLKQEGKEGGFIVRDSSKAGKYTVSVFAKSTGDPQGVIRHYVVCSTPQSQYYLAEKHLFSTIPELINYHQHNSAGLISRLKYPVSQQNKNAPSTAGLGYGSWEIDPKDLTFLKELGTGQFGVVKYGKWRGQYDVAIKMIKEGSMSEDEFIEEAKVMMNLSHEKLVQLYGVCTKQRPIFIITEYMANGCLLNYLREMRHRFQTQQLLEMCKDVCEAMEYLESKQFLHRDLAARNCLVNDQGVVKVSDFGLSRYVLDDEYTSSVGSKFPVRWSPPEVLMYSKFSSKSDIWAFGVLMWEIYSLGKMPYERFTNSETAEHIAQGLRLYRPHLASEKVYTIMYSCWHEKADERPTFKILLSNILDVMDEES

incorporation of acyl analogue label into BTK-C (BTK-C [1]): failed to observe incorporation
Molecule: CCCCCC/C=C\CCCCCCCC(=O)O [palmitoleic acid]

Molecule: C[C@H](Nc1ncnc2[nH]cnc12)c1cc2cccc(Cl)c2c(=O)n1-c1ccccc1 [IPI-145, Duvelisib]
toxicity [2]: less toxicity
toxicity (breast cells): significant toxicity

Molecule: EGF: ligand used for stimulation of BTK activation (NSDSECPLSHDGYCLHDGVCMYIEALDKYACNCVVGYIGERCQYRDLKWWELR; UniProt P01133 971-1023, looked up)
increase of activating phosphorylation levels above unstimulated levels (BTK-A and BTK-C): only modestly

Molecule: Insulin: common activator of PI3K in cancer cells
transactivation (phosphorylation of BTK by its dimerized partner) of BTK-C (BTK-C [3]; insulin stimulation (FIG. 5A)): largely unchanged
increase of Y551 phosphorylation of BTK-C (BTK-C [3]; [6]): ~24%
transactivation (phosphorylation of BTK by its dimerized partner) of BTK-A (BTK-A [4]; insulin stimulation (FIG. 5A)): largely unchanged
increase of Y551 phosphorylation of BTK-A (BTK-A [4]; [6]): two-fold

incorporation of acyl analogue label into BTK-C (BTK-C [1]): label is increased
incorporation of acyl analogue label into BTK-A (BTK-A [5]): not
Molecule: C#CCCCCCCCCCCCCCCCC(=O)O [17-ODYA, 17-octadecynoic acid]

Molecule: CCCCCCCC/C=C\CCCCCCCC(=O)O [oleic acid]
incorporation of acyl analogue label into BTK-C (BTK-C [1]): failed to observe incorporation

incorporation of acyl analogue label into BTK-C (BTK-C [1]): failed to observe incorporation
Molecule: CCCCC/C=C\C/C=C\C/C=C\C/C=C\CCCC(=O)O [arachidonic acid]

— patent US20250320501A1, “PALMITOYLATION OF THE ALTERNATIVE AMINO TERMINUS OF THE BTK-C ISOFORM CONTROLS SUBCELLULAR DISTRIBUTION AND SIGNALING” (The Research Foundation for the State University of New York, priority 2022, published 2025)
